For 48 compounds, IC50 and AUC results are on record in US8450355B2, “Compounds for the treatment of inflammatory diseases” (Merck Sharp & Dohme Corp., priority 2008, dated 2013).

A value given as a limit tells only on which side of the number the result lay.

For one series, the system named is TNF-α production from human whole blood. Description: Inhibition of TNF-α production from human whole blood (hWBA). In kind it is cell-based. The note with it: Table A; human whole blood diluted 1:1, LPS stimulation, 3.5 h, TNF-α by ELISA. On the procedure: Assay for Inhibition of TNF-α Production from Human Whole Blood (hWBA)
Human whole blood was diluted 1:1 with serum free medium (RPMI, L-glutamine, Pen-Strep, HEPES) and incubated with a test compound in a final volume of 360 μL for 1 h at 37° C. Forty microliters of LPS (10 μg/mL) was then added. Supernatant was collected after 3.5 h incubation and the concentration of TNF-α was determined by ELISA (R&D Systems). The concentration of the test compound which inhibits 50% of the amount of TNF-α from the control untreated control was determined.
Broadly, the IC50 is the point on the concentration scale where inhibition reaches its midpoint. Higher therefore signals lower potency. On to `COc1c(F)cc2c(c1F)C(=O)N(CC1(c3cc4ncccc4o3)NC(=O)NC1=O)C2` (centres unmarked) [Compound 1170], for which the IC50 is over 10000 nM.
On to `COc1c(F)cc2c(c1F)C(=O)N(C[C@@]1(C#Cc3ccc(C(N)=O)cc3)NC(=O)NC1=O)C2` [Compound 1180], for which half-maximal inhibition (IC50) required 1430 nM.
For `Cc1cc2c3c(ccc2o1)CN(C[C@@]1(c2cc4ncccc4o2)NC(=O)NC1=O)C3=O` [Compound 1701], the half-maximal inhibitory concentration (IC50) is over 10000 nM.
Consider `CCN1CCN(C(=N)c2ccc3oc([C@]4(CN5Cc6ccc(OC)cc6C5=O)NC(=O)NC4=O)cc3n2)CC1` [Compound 1501], for which the IC50 amounted to 1890 nM.
Compound `O=C1NC(=O)[C@](CN2Cc3ccc4oc(Cc5ccccc5)cc4c3C2=O)(c2cc3ncccc3o2)N1` [Compound 1703] showed an IC50 of over 10000 nM.
The same measure, in the same setting: the same measure for `COc1ccc2c(c1)C(=O)N(C[C@@](O)(C(=O)O)c1cc3cnccc3[nH]1)C2` [Compound 1120B]: over 10000 nM; for `CCN1CCCN(c2ccc(O)c(CC(=O)[C@]3(CN4Cc5ccc(OC)c(F)c5C4=O)NC(=O)NC3=O)n2)CC1` [Compound 1707]: 1570 nM.
The compound `COc1c(F)cc2c(c1F)C(=O)N(CC1(C#Cc3ccc(C4(CN)NC(=O)NC4=O)cc3)NC(=O)NC1=O)C2` (centres unmarked) [Compound 1150] had an IC50 of over 10000 nM.
`COc1ccc2c(c1)C(=O)N(C[C@@](N)(C(=O)O)c1cc3cnccc3o1)C2` [Compound 1120A]: the IC50 is over 10000 nM.
For `COc1ccc2c(c1)C(=O)N(C[C@@]1(c3cc4nc(C(=N)NO)ccc4o3)NC(=O)NC1=O)C2` [Compound 1500], it took 640 nM to reach half-maximal inhibition (IC50).
The same measure, in the same setting: the same measure for `COc1ccc2c(c1)C(=O)N(C[C@@]1(C(=O)Cc3nc(Nc4cn[nH]c4)ccc3O)NC(=O)NC1=O)C2` [Compound 1705]: 292 nM; for `COc1c(F)cc2c(c1F)C(=O)N(C[C@@]1(c3cc4cnccc4o3)NC(=O)NC1=O)C2` [Compound 1160]: 7140 nM; for `COC(=O)[C@@](CN1Cc2ccc(OC)c(F)c2C1=O)(NC(N)=O)c1cc2nc(Cl)c(F)cc2o1` [Compound 1304]: 3100 nM.
`COc1c(F)cc2c(c1F)C(=O)N(C[C@@]1(c3cc4ncccc4o3)NC(=O)NC1=O)C2` [Compound 1175] displayed an IC50 of 7120 nM.
Take `COc1ccc2c(c1)C(=O)N(C[C@@]1(c3cc4nc(C(=N)N5CCCN(C)CC5)ccc4o3)NC(=O)NC1=O)C2` [Compound 1502]: the IC50 was found to be 1820 nM.
`COc1c(F)cc2c(c1F)C(=O)N(CC1(c3cc4nc(N5CCC(N(C)C)CC5)ccc4o3)NC(=O)NC1=O)C2` (centres unmarked) [Compound 1190] had an IC50 of over 10000 nM.
Still for that read-out and setting: the same measure for `COCc1cc2c3c(ccc2o1)CN(C[C@@]1(c2cc4ncccc4o2)NC(=O)NC1=O)C3=O` [Compound 1702]: over 10000 nM; for `COc1c(F)cc2c(c1F)C(=O)N(CC1(c3cc4cnccc4o3)NC(=O)NC1=O)C2` (centres unmarked) [Compound 1165]: over 10000 nM; for `O=C1NC(=O)[C@](CN2Cc3ccc4oc(C5CC5)cc4c3C2=O)(c2cc3ncccc3o2)N1` [Compound 1704]: over 10000 nM.
On the same count and under the same terms, the same measure for `Cc1cc2cc3c(c(F)c2o1)C(=O)N(CC1(c2cc4nc(-c5cn[nH]c5)ccc4o2)NC(=O)NC1=O)C3` (centres unmarked) [Compound 1700]: 501 nM.

The series is the same for the next values; noted with them: Table B; human whole blood diluted 1:1, LPS stimulation, 3.5 h, TNF-α by ELISA.
`COc1ccc2c(c1)C(=O)N(C[C@@]1(C#Cc3ccc(C(C(N)=O)N4CCCN(C(=O)OC(C)(C)C)CC4)cc3)NC(=O)NC1=O)C2` (some centres unmarked) [Compound 2237] registered an IC50 of 1180 nM.
With `COc1ccc2c(c1)C(=O)N(C[C@@]1(c3cc4c5c(ccc4o3)C3(CC5)CNC(=O)N3)NC(=O)NC1=O)C2` (some centres unmarked) [Compound 2213], half-maximal inhibition (IC50) was put at 335 nM.
On the same count and under the same terms, the same measure for `COc1ccc2c(c1)C(=O)N(C[C@@]1(c3cc4c5c(ccc4o3)CCC53NC(=O)NC3=O)NC(=O)NC1=O)C2` (some centres unmarked) [Compound 2223]: 1000 nM; for `COc1ccc2c(c1)C(=O)N(C[C@@]1(C#Cc3ccc(C(=NO)N(C)C)s3)NC(=O)NC1=O)C2` [Compound 2227]: 813 nM.
Consider `COc1ccc2c(c1)C(=O)N(C[C@@]1(c3cc4c5c(ccc4o3)C3(CCC5)NC(=O)NC3=O)NC(=O)NC1=O)C2` (some centres unmarked) [Compound 2211], for which half-maximal inhibition (IC50) was put at 570 nM.
`COc1ccc2c(c1)C(=O)N(C[C@@]1(C#Cc3ccc(C(=NO)N(C)C)cc3)NC(=O)NC1=O)C2` [Compound 2231]: the IC50 was 152 nM.
Take `COc1c(Cl)cc2c(c1Cl)C(=O)N(C[C@@]1(c3cc4cnccc4o3)NC(=O)NC1=O)C2` [Compound 2201]: the IC50 was at least 10000 nM.
With `COc1ccc2c(c1)CCN(C[C@@]1(c3cc4c5c(ccc4o3)C3(CC5)NC(=O)NC3=O)NC(=O)NC1=O)C2=O` (some centres unmarked) [Compound 2203], half-maximal inhibition (IC50) was put at 3560 nM.
The compound `CCN(CC)C(=NO)c1ccc(C#C[C@]2(CN3Cc4ccc(OC)cc4C3=O)NC(=O)NC2=O)cc1` [Compound 2234] returned an IC50 of 205 nM.
On to `COc1ccc2c(c1F)C(=O)N(C[C@@]1(c3cc4c5c(ccc4o3)C3(CC5)NC(=O)NC3=O)NC(=O)NC1=O)C2` (some centres unmarked) [Compound 2216], for which the midpoint of inhibition, the IC50, lay at 145 nM.
`COc1ccc2c(c1)C(=O)N(C[C@@]1(c3cc4ccc5c(c4o3)CCC53CNC(=O)N3)NC(=O)NC1=O)C2` (some centres unmarked) [Compound 2215] gave an IC50 of 628 nM.
The compound `COc1ccc2c(c1)C(=O)N(C[C@@]1(C#Cc3ccc(C(C(=O)O)N4CCCN(C(=O)OC(C)(C)C)CC4)cc3)NC(=O)NC1=O)C2` (some centres unmarked) [Compound 2238] displayed an IC50 of 1020 nM.
`COc1ccc2c(c1)CCN(C[C@@]1(c3cc4cnccc4o3)NC(=O)NC1=O)C2=O` [Compound 2219] had an IC50 of 1370 nM.
`CCCN(C)C(=NO)c1ccc(C#C[C@]2(CN3Cc4ccc(OC)cc4C3=O)NC(=O)NC2=O)cc1` [Compound 2224] displayed an IC50 of 239 nM.
As to `COc1ccc2c(c1)C(=O)N(C[C@@]1(C(=O)Cc3nc(NC4CCN(C)CC4)ccc3O)NC(=O)NC1=O)C2` [Compound 2241], the IC50 stood at 1270 nM.
For the compound `COc1ccc2c(c1)C(=O)N(C[C@@]1(c3cc4ccc5c(c4o3)CCC53NC(=O)NC3=O)NC(=O)NC1=O)C2` (some centres unmarked) [Compound 2214], the IC50 amounted to 1010 nM.
`CCN(CC)CCN(C)/C(=N/O)c1ccc2oc([C@]3(CN4Cc5ccc(OC)cc5C4=O)NC(=O)NC3=O)cc2c1` [Compound 2207] displayed a half-inhibitory concentration (IC50) of 308 nM.
The same measure, in the same setting: the same measure for `COc1ccc2c(c1)C(=O)N(C[C@@]1(C#Cc3ccc(C(=NO)N(C)CCN(C)C)cc3)NC(=O)NC1=O)C2` [Compound 2228]: 91 nM.
In turn, `COc1ccc2c(c1)C(=O)N(C[C@@]1(C#Cc3ccc(C(=O)NS(N)(=O)=O)cc3)NC(=O)NC1=O)C2` [Compound 2230] yielded an IC50 of 434 nM.
`CCN(CC)CCN(CC)/C(=N/O)c1ccc2oc([C@]3(CN4Cc5ccc(OC)cc5C4=O)NC(=O)NC3=O)cc2c1` [Compound 2208] registered an IC50 of 281 nM.
`COc1ccc2c(c1)C(=O)N(C[C@@]1(c3cc4nc(C(=N)N)ccc4o3)NC(=O)NC1=O)C2` [Compound 2200] registered an IC50 of 307 nM.
For `COc1ccc2c(c1)CCN(C[C@@]1(c3cc4nc(-c5cn[nH]c5)ccc4o3)NC(=O)NC1=O)C2=O` [Compound 2218], half-maximal inhibition (IC50) was put at 284 nM.
On the same count and under the same terms, the same measure for `COc1ccc2c(c1)CCN(C[C@@]1(c3cc4c5c(ccc4o3)CNC5=O)NC(=O)NC1=O)C2=O` [Compound 2217]: 1940 nM.
`CCN(CC)CCN(C)C(=NO)c1ccc(C#C[C@]2(CN3Cc4ccc(OC)cc4C3=O)NC(=O)NC2=O)cc1` [Compound 2229] came in with an IC50 of 96 nM.
As for `COc1ccc2c(c1)C(=O)N(C[C@@]1(C#Cc3ccc(NC(=S)NCCN4CCOCC4)cc3)NC(=O)NC1=O)C2` [Compound 2239], 267 nM corresponded to half-maximal inhibition (IC50).
`COc1ccc2c(c1)C(=O)N(C[C@@]1(c3cc4cc(NS(N)(=O)=O)ccc4o3)NC(=O)NC1=O)C2` [Compound 2209]: the IC50 was found to be 315 nM.
For the compound `COc1ccc2c(c1)C(=O)N(C[C@@]1(c3cc4cc(/C(=N\O)N(C)CCN(C)C)ccc4o3)NC(=O)NC1=O)C2` [Compound 2206], half-maximal inhibition (IC50) required 384 nM.
Compound `COc1ccc2c(c1)C(=O)N(C[C@@]1(c3cc4c5c(ccc4o3)C3(CC5)NC(=O)NC3=O)NC(=O)NC1=O)C2` (some centres unmarked) [Compound 2210] gave an IC50 of 187 nM.

Tested on in another series: not listed separately
Briefly: Area under the curve determination of plasma levels in rats (rapid rat AUC). In kind it is in vivo. The note with it: Table A, oral, 10 mg/kg, blood 0.5-6 h post-dosing, read-out: RR AUC. On the procedure: Area Under the Curve Determinations of Plasma Levels in Rats (rrAUC)
To gain insight into the pharmacokinetic properties of the compounds of formula (I), plasma levels of the compounds in rats were determined according to the protocol described in Korfmacher, W. A.; Cox, K. A.; Ng, K. J.; Veals, J.; Hsieh, Y.; Wainhaus, S.; Broske, L.; Prelusky, D.; Nomeir, A.; White, R. E. Rapid Commun. Mass Spectrom, 2001, 15, 335, Briefly, rats, after an overnight fast, were dosed orally with the test compound at a dose of 10 mg/kg in a 5 mL/kg dose volume. Blood was collected at 0.5, 1, 2, 3, 4, and 6 h post-dosing. Mass spectrometry using high performance liquid chromatography was used to identify and measure the concentrations of the test compounds in the plasma at the various time points. The parent ion of each test compound was used to identify and quantitate the compounds in plasma.
As a reminder, the AUC is concentration integrated over time. For the compound `COC(=O)[C@@](CN1Cc2ccc(OC)c(F)c2C1=O)(NC(N)=O)c1cc2nc(Cl)c(F)cc2o1` [Compound 1304], the AUC is 0.113 µM·h.

The same series, now with this note: Table B, oral, 10 mg/kg, blood 0.5-6 h post-dosing, read-out: RR AUC.
Consider `COc1ccc2c(c1)C(=O)N(C[C@@]1(c3cc4c5c(ccc4o3)C3(CCC5)NC(=O)NC3=O)NC(=O)NC1=O)C2` (some centres unmarked) [Compound 2211], for which the AUC stood at 0.055 µM·h.
As to `COc1ccc2c(c1F)C(=O)N(C[C@@]1(c3cc4c5c(ccc4o3)C3(CC5)NC(=O)NC3=O)NC(=O)NC1=O)C2` (some centres unmarked) [Compound 2216], the AUC is 1.6 µM·h.
As to `COc1ccc2c(c1)C(=O)N(C[C@@]1(c3cc4ccc5c(c4o3)CCC53NC(=O)NC3=O)NC(=O)NC1=O)C2` (some centres unmarked) [Compound 2214], the AUC worked out at 0.128 µM·h.
On to `COc1ccc2c(c1)C(=O)N(C[C@@]1(c3cc4c5c(ccc4o3)C3(CC5)NC(=O)NC3=O)NC(=O)NC1=O)C2` (some centres unmarked) [Compound 2210], for which the AUC turned out to be 0.321 µM·h.
